Assay results reported in patent US6660755B2, “Substituted diaryl or diheteroaryl methans, ethers and amines having retinoid agonist, antagonist or inverse agonist type biological activity” (Allergan, Inc., priority 1997, dated 2003).
Changes are numbered by the printed parent chain. pEC50, pKd: −log10 of the molar value.

Legend:
RARγ [1] = biological target: T1, RARγ (Homo sapiens, UniProt P13631); experiment: Ligand binding assay, RARγ
T1 sequence (P13631 1-454): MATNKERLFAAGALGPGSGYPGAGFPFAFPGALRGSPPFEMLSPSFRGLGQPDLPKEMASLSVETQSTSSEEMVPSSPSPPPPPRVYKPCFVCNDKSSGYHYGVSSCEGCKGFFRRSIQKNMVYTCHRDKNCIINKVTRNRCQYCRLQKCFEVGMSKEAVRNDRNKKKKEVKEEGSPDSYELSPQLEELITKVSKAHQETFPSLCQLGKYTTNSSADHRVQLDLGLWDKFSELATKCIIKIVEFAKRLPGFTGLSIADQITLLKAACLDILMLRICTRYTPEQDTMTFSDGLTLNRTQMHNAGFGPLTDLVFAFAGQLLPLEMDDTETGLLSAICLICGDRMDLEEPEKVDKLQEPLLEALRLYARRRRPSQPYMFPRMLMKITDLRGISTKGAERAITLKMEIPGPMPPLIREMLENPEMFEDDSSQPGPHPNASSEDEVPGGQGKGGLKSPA
From the text: (§1) A holoreceptor transactivation assay and a ligand binding assay which measure the antagonist/agonist like activity of the compounds of the invention, or their ability to bind to the several retinoid receptor subtypes, respectively, are described in published PCT Application No. WO WO93/11755 (particularly on pages 30-33 and 37-41) published on Jun. 24, 1993, the specification of which is also incorporated herein by reference. A detailed experimental procedure for holoreceptor transactivations has been described by Heyman et al. Cell 1992, 68, 397-406; Allegretto et al. J. Biol. Chem. 1993 268, 26625-26633, and Mangelsdorf et al. The Retinoids: Biology, Chemistry and Medicine, pp 319-349, Raven Press Ltd., New York, which are expressly incorporated herein by reference. The results obtained in this assay are expressed in EC50 numbers, as they are also in the chimeric receptor transactivation assay. The results of ligand binding assay are expressed in Kd numbers. (See Cheng et al. Biochemical Pharmacology 22, 3099-3108, expressly incorporated herein by reference.) Still another transactivation assay, the “PGR assay” is described in the publication Klein et al. J. Biol. Chem. 1996, 271, 22692-22696, which is expressly incorporated herein by reference, and a detailed description is also provided below. The results of the PGR assay are also expressed in EC50 numbers (nanomolar concentration).

RARγ [2] = biological target: T2, RARγ (Homo sapiens, UniProt P13631, E108G/G109S/G112V); experiment: PGR assay (RAR-P-GR holoreceptor transactivation), RARγ; type: cell-based; settings: for pEC50: PGR assay (transactivation), CV-1 cells, luciferase reporter; for % Efficiency RARγ: efficiency relative to all-trans-retinoic acid, PGR assay
T2 construct: expressed in transfected cells; host or cells: CV-1 cells
T2 sequence (P13631 1-454 E108G/G109S/G112V): T1 sequence (P13631 1-454) with E108G, G109S, G112V
T2 sequence (P19793 1-462 partner): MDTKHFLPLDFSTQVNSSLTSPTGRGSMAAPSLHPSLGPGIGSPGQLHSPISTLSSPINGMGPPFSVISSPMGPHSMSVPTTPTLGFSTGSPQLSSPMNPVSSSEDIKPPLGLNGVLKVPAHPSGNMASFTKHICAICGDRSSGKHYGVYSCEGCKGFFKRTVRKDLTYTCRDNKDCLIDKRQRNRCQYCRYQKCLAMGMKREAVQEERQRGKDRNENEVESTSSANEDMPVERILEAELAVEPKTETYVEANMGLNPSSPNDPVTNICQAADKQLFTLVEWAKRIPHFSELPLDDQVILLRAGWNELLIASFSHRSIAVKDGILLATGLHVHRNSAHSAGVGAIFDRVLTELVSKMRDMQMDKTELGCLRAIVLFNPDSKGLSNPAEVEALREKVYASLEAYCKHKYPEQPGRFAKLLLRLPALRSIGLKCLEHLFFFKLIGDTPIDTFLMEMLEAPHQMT
From the text: as §1
RAR-P-GR holoreceptor Transactivation Assay
CV-1 cells (4×10^5 cells/well) were transiently transfected with the luciferase reporter plasmid MTV-4(R5G)-Luc (0.7 μg/well) containing four copies of the R5G retinoid DNA response element along with the RXRα expression plasmid pRS-hRXRa (0.1 μg/well) and one of the RAR-P-GR expression plasmids (0.05 μg/well) in 12 well plates via calcium phosphate precipitation Chen et al. Mol. Cell. Biol. 1987, 7, 2745-2752 as described by Klein et al. J. Biol. Chem. 1996, 271, 22692, referenced above. The three different RAR-P-GR expression plasmids, pRS-RARα-P-GR, pcDNA3-RARβ-P-GR and pcDNA3-RARγ-P-GR, express RARα, RARβ and RARγ receptors, respectively, which contain modified DNA binding domains such that their “P-boxes” have been altered to that of the glucocorticoid receptor. These RAR-P-GR receptors bind to DNA as heterodimeric complexes with RXR. Specifically, the RAR-P-GR receptors bind retinoic acid response elements designated R5G, comprised of two RAR half sites (nucleotide sequence 5′-GGTTCA-3′) separated by 5 base pairs in which the 3′-half site has been modified to that of a glucocorticoid receptor half site, 5′-AGAACA-3′. To allow for various in transfection efficiency a β-galactosidase expression plasmid (0.01 μg/well) was used as an internal control. Alternatively, the assay was performed in a 96-well microtiter plate format (5000 cells/well) in a manner which was identical to that described above except ⅕ of the amount of the DNA-calcium phosphate precipitant (20 μl instead of 100 Al) was applied to each well. Eighteen hours after introduction of the DNA precipitants, cells were rinsed with phosphate buffered saline (PBS) and fed with D-MEM (Gibco-BRL) containing 10% activated charcoal extracted fetal bovine serum (Gemini Bio-Products). After rinsing with PBS cells were lysed with luciferase activity was measured as previously described in de Wet Mol. Cell. Biol. 1987, 7, 725-737. Luciferase values represent the mean±SEM of triplicate determinations normalized to β-galactosidase activity. The results of the PGR assay are also expressed in EC50 numbers (nanomolar concentration).

pKd (RARγ [1])	pEC50 (RARγ [2])	% Efficiency RARγ (RARγ [2]) [%]	Compound
6.50	< 5.00	70	CC(C)(C)c1ccc(C#Cc2ccc(C(=O)O)cn2)cc1Oc1ccc(C(F)(F)F)cc1 [Compound 6, 6-[[4′-tert-Butyl-3′-(4″-trifluomethyl)phenoxy]phenylethynyl]-3-nicotinic Acid]
7.18	< 5.00	0	COC(=O)c1ccc(Oc2cc(C#Cc3ccc(C(=O)O)c(F)c3)ccc2C(C)(C)C)cc1 [Compound 10, 4-[[4′-tert-Butyl-3′-(4″-carbomethoxy)phenoxy]phenylethynyl]-2-fluorobenzoic Acid]
6.95	< 5.00	1	CC(C)(C)c1ccc(C#Cc2ccc(C(=O)O)c(F)c2)cc1Oc1ccc([N+](=O)[O-])cc1 [Compound 11, 4-[[4′-tert-Butyl-3′-(4″-nitro)phenoxy]phenylethynyl]-2-fluoro-benzoic Acid]
5.24	< 5.00	4	CC(C)(C)c1ccc(C(=O)Nc2ccc(C(=O)O)c(F)c2)cc1Oc1ccc(C(F)(F)F)cc1 [Compound 13, 4-[[4′-tert-Butyl-3′-(4″-trifluoromethyl)phenoxy]benzoylamino]-2-fluorobenzoic Acid]
